{
  "source": "ChEMBL document CHEMBL1158927",
  "about": "“Facilitation of protein biosynthesis by ginsenoside-Rb2 administration in diabetic rats” (1990)",
  "key": {"Rattus norvegicus [1]": {"system": "Rattus norvegicus", "assay": "Antidiabetic activity against streptozotocin-induced diabetic Wistar rat assessed as decrease in serum glucose level at 10 mg/day, ip for 3 days measured after 6 days (RVb=401+/-10.7 mg/dl)", "type": "functional"}, "Rattus norvegicus [2]": {"system": "Rattus norvegicus", "assay": "Antidiabetic activity against streptozotocin-induced diabetic Wistar rat assessed as increase in incorporation of [14C]leucine in to hepatic nuclear fraction at 10 mg/day, ip measured per mg protein after 3 days (RVb=272+/-8 cpm)", "type": "functional"}, "Rattus norvegicus [3]": {"system": "Rattus norvegicus", "assay": "Antidiabetic activity against streptozotocin-induced diabetic Wistar rat assessed as increase in incorporation of [14C]leucine into hepatic microsomal fraction at 10 mg/day, ip measured per mg protein after 3 days (RVb=555+/-33 cpm)", "type": "functional, Liver"}, "Rattus norvegicus [4]": {"system": "Rattus norvegicus", "assay": "Antidiabetic activity against streptozotocin-induced diabetic Wistar rat assessed as […] in incorporation of [14C]leucine into per mg serum protein at 10 mg/day, ip measured after 3 days (RVb=640+/-50 cpm)", "type": "functional"}, "Rattus norvegicus [5]": {"system": "Rattus norvegicus", "assay": "Antidiabetic activity against streptozotocin-induced diabetic Wistar rat assessed as increase in incorporation of [14C]leucine in to hepatic nuclear fraction at 10 mg/day, ip measured per mg protein after 6 days (RVb=273+/-8 cpm)", "type": "functional"}, "Rattus norvegicus [6]": {"system": "Rattus norvegicus", "assay": "Antidiabetic activity against streptozotocin-induced diabetic Wistar rat assessed as increase in incorporation of [14C]leucine into hepatic microsomal fraction at 10 mg/day, ip measured per mg protein after 6 days (RVb=499+/-57 cpm)", "type": "functional, Liver"}, "Rattus norvegicus [7]": {"system": "Rattus norvegicus", "assay": "Antidiabetic activity against streptozotocin-induced diabetic Wistar rat assessed as decrease in serum glucose level at 10 mg/day, ip for 3 days measured after 3 days (RVb=396+/-18.7 mg/dl)", "type": "functional"}, "Rattus norvegicus [8]": {"system": "Rattus norvegicus", "assay": "Antidiabetic activity against streptozotocin-induced diabetic Wistar rat assessed as increase in serum albumin level at 10 mg/day, ip for 3 days measured after 3 days by BCG method (RVb=3.24+/-0.11 g/dl)", "type": "functional"}, "Rattus norvegicus [9]": {"system": "Rattus norvegicus", "assay": "Antidiabetic activity against streptozotocin-induced diabetic Wistar rat assessed as increase in incorporation of [14C]leucine into hepatic […] fraction at 10 mg/day, ip measured per mg protein after 6 days (RVb=357+/-14 cpm)", "type": "functional"}, "Rattus norvegicus [10]": {"system": "Rattus norvegicus", "assay": "Antidiabetic activity against streptozotocin-induced diabetic Wistar rat assessed as increase in serum protein level at 10 mg/day, ip for 3 days measured after 3 days by biuret method (RVb=5.06+/-0.18 g/dl)", "type": "functional"}, "Rattus norvegicus [11]": {"system": "Rattus norvegicus", "assay": "Antidiabetic activity against streptozotocin-induced diabetic Wistar rat assessed as increase in incorporation of [14C]leucine in to hepatic […] fraction at 10 mg/day, ip measured per mg protein after 3 days (RVb=377+/-10 cpm)", "type": "functional"}, "Rattus norvegicus [12]": {"system": "Rattus norvegicus", "assay": "Antidiabetic activity against streptozotocin-induced diabetic Wistar rat assessed as increase in incorporation of [14C]leucine into hepatic soluble fraction at 10 mg/day, ip measured per mg protein after 6 days (RVb=227+/-8 cpm)", "type": "functional"}, "Rattus norvegicus [13]": {"system": "Rattus norvegicus", "assay": "Antidiabetic activity against streptozotocin-induced diabetic Wistar rat assessed as […] in incorporation of [14C]leucine into per mg of serum protein at 10 mg/day, ip measured after 6 days (RVb=612+/-40 cpm)", "type": "functional"}, "Rattus norvegicus [14]": {"system": "Rattus norvegicus", "assay": "Antidiabetic activity against streptozotocin-induced diabetic Wistar rat assessed as increase in incorporation of [14C]leucine into hepatic soluble fraction at 10 mg/day, ip measured per mg protein after 3 days (RVb=265+/-8 cpm)", "type": "functional"}, "Rattus norvegicus [15]": {"system": "Rattus norvegicus", "assay": "Antidiabetic activity against streptozotocin-induced diabetic Wistar rat assessed as increase in serum albumin level at 10 mg/day, ip for 3 days measured after 6 days by BCG method (RVb=3.07+/-0.08 g/dl)", "type": "functional"}, "Rattus norvegicus [16]": {"system": "Rattus norvegicus", "assay": "Antidiabetic activity against streptozotocin-induced diabetic Wistar rat assessed as increase in serum protein level at 10 mg/day, ip for 6 days by biuret method", "type": "functional"}, "Rattus norvegicus [17]": {"system": "Rattus norvegicus", "assay": "Antidiabetic activity against streptozotocin-induced diabetic Wistar rat assessed as increase in incorporation of [14C]leucine into hepatic homogenate at 10 mg/day, ip measured per mg protein after 6 days (RVb=372+/-3 cpm)", "type": "functional"}, "Rattus norvegicus [18]": {"system": "Rattus norvegicus", "assay": "Antidiabetic activity against streptozotocin-induced diabetic Wistar rat assessed as increase in incorporation of [14C]leucine into hepatic homogenate at 10 mg/day, ip measured per mg protein after 3 days (RVb=401+/-16 cpm)", "type": "functional"}, "Rattus norvegicus [19]": {"system": "Rattus norvegicus", "assay": "Antidiabetic activity against streptozotocin-induced diabetic Wistar rat assessed as increase in serum protein level at 10 mg/day, ip for 3 days measured after 6 days by biuret method (RVb=4.86+/-0.30 g/dl)", "type": "functional"}},
  "data": [
    {"smiles": "CC(C)=CCC[C@](C)(O[C@@H]1O[C@H](CO[C@@H]2OC[C@H](O)[C@H](O)[C@H]2O)[C@@H](O)[C@H](O)[C@H]1O)[C@H]1CC[C@]2(C)[C@@H]1[C@H](O)C[C@@H]1[C@@]3(C)CC[C@H](O[C@@H]4O[C@H](CO)[C@@H](O)[C@H](O)[C@H]4O[C@@H]4O[C@H](CO)[C@@H](O)[C@H](O)[C@H]4O)C(C)(C)[C@@H]3CC[C@]12C", "note": "[GINSENOSIDE RB2]", "values": [
      {"measurement": "Activity", "setting": "Rattus norvegicus [1]", "value": 321, "unit": "mg/dL"},
      {"measurement": "Activity", "setting": "Rattus norvegicus [2]", "value": 294, "unit": "cpm"},
      {"measurement": "Activity", "setting": "Rattus norvegicus [3]", "value": 689, "unit": "cpm"},
      {"measurement": "Activity", "setting": "Rattus norvegicus [4]", "value": 921, "unit": "cpm"},
      {"measurement": "Activity", "setting": "Rattus norvegicus [5]", "value": 314, "unit": "cpm"},
      {"measurement": "Activity", "setting": "Rattus norvegicus [6]", "value": 737, "unit": "cpm"},
      {"measurement": "Activity", "setting": "Rattus norvegicus [7]", "value": 337.2, "unit": "mg/dL"},
      {"measurement": "Activity", "setting": "Rattus norvegicus [8]", "value": 3.24, "unit": "g/dL"},
      {"measurement": "Activity", "setting": "Rattus norvegicus [9]", "value": 395, "unit": "cpm"},
      {"measurement": "Activity", "setting": "Rattus norvegicus [10]", "value": 5.11, "unit": "g/dL"},
      {"measurement": "Activity", "setting": "Rattus norvegicus [11]", "value": 426, "unit": "cpm"},
      {"measurement": "Activity", "setting": "Rattus norvegicus [12]", "value": 242, "unit": "cpm"},
      {"measurement": "Activity", "setting": "Rattus norvegicus [13]", "value": 699, "unit": "cpm"},
      {"measurement": "Activity", "setting": "Rattus norvegicus [14]", "value": 287, "unit": "cpm"},
      {"measurement": "Activity", "setting": "Rattus norvegicus [15]", "value": 3.39, "unit": "g/dL"},
      {"measurement": "Activity", "setting": "Rattus norvegicus [16]", "value": 17, "unit": "%"},
      {"measurement": "Activity", "setting": "Rattus norvegicus [17]", "value": 424, "unit": "cpm"},
      {"measurement": "Activity", "setting": "Rattus norvegicus [18]", "value": 481, "unit": "cpm"},
      {"measurement": "Activity", "setting": "Rattus norvegicus [19]", "value": 5.68, "unit": "g/dL"}
    ]}
  ]
}
